Data from US20150247149A1, “Detecting and Treating Liver Damage” (The Regents of the University of California, priority 2012, published 2015).

Legend:
VNN1 = VNN1 expression in HepG2 and HepG2-derived MPs (Western blotting, flow cytometry, QPCR); type: cell-based, human; settings: HepG2 exposed to 0.25 mM FFA
Description: HepG2 were trypsinized and 8×10^5 cells were seeded in a 6-well plate. To knockdown VNN1 or PPARα in hepatocytes, HepG2 were incubated with 50 nM of silencing RNA (siRNA) for VNN1 or PPARα and control siRNA (Ctrl siRNA) dissolved in Lipofectamine 2000 (Life Technologies, Carlsbad, Calif., USA). Transfection was performed according to the manufacturer instructions. After 48 h post transfection, cells were treated with 0.25 mM of palmitic acid for 24 h and microparticles were isolated from the supernatant by ultracentrifugation. The efficiency of transfection has been confirmed in hepatocytes and microparticles by Western blotting as described in the “Protein analysis” paragraph. […] In vivo VNN1 knockdown experiments during experimental NASH were assessed by weekly injection of VNN1 stealthRNA (Life Technology), control siRNA (Ctrl siRNA) or PBS as vehicle (mock) in C57BL/6 mice fed with the MCD diet for 6 weeks. […]
Tissue (liver, intestine, spleen and kidney) from MCD- and MCS-fed mice (Casp-3−/−, WT, treated with VNN1 siRNA and controls) was homogenized using the FastPrep 24 bead homogenization system. […] The concentration and purity of RNA was assessed by NanoDrop (Thermo Scientific). Quantitative Real time PCR was performed on a BioRad Cycler (BioRad) by using SYBRGreen real time PCR master mix (Kapabiosystem, Woburn, Mass., USA) according to the manufacturer instructions. […]

HUVECs = assay: HUVEC tube formation assay; type: cell-based, human; settings: supernatants from HepG2/primary rat hepatocytes incubated with FFA up to 24 h; VEGF-A positive control
Description: HUVECs (0.5-1×10^5 cells per well) were seeded onto a coated 24-well plate culture dishes with 200 μl/cm2 (thick gel method) of Matrigel (BD, Franklin Lakes, N.J., USA) and cultured in EBM-2 basal medium supplemented with 1.1% of streptomycin and penicillin in the presence of 100 ng/mL of VEGF (Peprotech, Rocky Hill, N.J., USA), hepatocytes-derived MPs, MP-free supernatant or conditioned supernatant collected after 24 hours of treatment with FFAs. In selective studies, a specific inhibitor for RhoA-ROCK (Y27632, 10 μM) was used in association with MPs in the treatment of endothelial cells. For the ex vivo studies, PFP isolated from different groups of mice (chow, HF/HCarb, MCD fed mice and mice injected with control RNA, VNN1 siRNA or PBS as vehicle) were ultracentrifuged at 100,000 g for 1 h at 10° C. to pellet the blood MPs. HUVECs were treated with MPs (or blood pure MPs) and incubated for 5 h at 37° C. Tube formation was investigated by using an inverted microscope at 4× magnification and images were captured. Tube formation image analysis was assessed by using Wimtube software (Wimasis, Munich, Germany) and the values referred to total tube length (pixel) were used for statistical and data analysis.

Compound	VNN1 expression in MPs from FFA-treated cells (Western blot) (VNN1)	tube formation induced by cell-free supernatants of FFA-treated hepatocytes (HUVECs)
CCCCCCCCCCCCCCCC(=O)O [palmitic acid]	expressed	marked increase
CCCCCCCC/C=C\CCCCCCCC(=O)O [oleic acid]	not	not
